Experimental data published in ChEMBL document CHEMBL1136837, “Unified QSAR approach to antimicrobials. 4. Multi-target QSAR modeling and comparative multi-distance study of the giant components of antiviral drug-drug complex networks” (Bioorg Med Chem, 2009).

Experiments:
Cowpox virus = experiment: Antiviral activity against Cowpox virus; assay type: functional, organism-based
Monkeypox virus = experiment: Antiviral activity against Monkeypox virus; assay type: functional, organism-based
Vaccinia virus = experiment: Antiviral activity against Vaccinia virus; assay type: functional, organism-based, Orthopoxvirus vaccinia
Human respirovirus 1 = experiment: Antiviral activity against Human parainfluenza virus 1; assay type: functional, organism-based
Hepatitis C virus = experiment: Antiviral activity against Hepatitis C virus c; assay type: functional, organism-based, Hepacivirus hominis
H2N2 subtype = experiment: Antiviral activity against influenza H2N2 virus; assay type: functional, organism-based; conditions: Influenza A virus
Influenza A virus H3N2 = experiment: Antiviral activity against influenza H3N2 virus; assay type: functional, organism-based, H3N2 subtype
H5N1 subtype = experiment: Antiviral activity against influenza H5N1 virus; assay type: functional, organism-based; conditions: Influenza A virus
Human adenovirus 2 = experiment: Antiviral activity against Human adenovirus 2; assay type: functional, organism-based; conditions: Human mastadenovirus C
Simplexvirus = experiment: Antiviral activity against Herpes simplex virus; assay type: functional, organism-based
Human betaherpesvirus 5 = experiment: Antiviral activity against Human cytomegalovirus; assay type: functional, organism-based; conditions: Human betaherpesvirus 5
[1] = system: Human parainfluenza virus 2; experiment: Antiviral activity against Human parainfluenza virus 2; assay type: functional, organism-based; conditions: Human orthorubulavirus 2
Human respirovirus 3 = experiment: Antiviral activity against Human parainfluenza virus 3; assay type: functional, organism-based
Respirovirus muris = experiment: Antiviral activity against Sendai virus; assay type: functional, organism-based
Influenza B virus = experiment: Antiviral activity against influenza B virus; assay type: functional, organism-based
Influenza C virus = experiment: Antiviral activity against Influenza C virus; assay type: functional, organism-based
Influenza A virus = experiment: Antiviral activity against influenza H1N1 virus; assay type: functional, organism-based
Camelpox virus = experiment: Antiviral activity against Camelpox virus; assay type: functional, organism-based
[2] = system: unidentified influenza virus; experiment: Antiviral activity against influenza virus; assay type: functional, organism-based
[3] = system: Human immunodeficiency virus 1; experiment: Antiviral activity against HIV1; assay type: functional, organism-based
Human rhinovirus sp. = experiment: Antiviral activity against Human rhinovirus; assay type: functional, organism-based
Enterovirus C = experiment: Antiviral activity against Poliovirus; assay type: functional, organism-based
Coxsackievirus = experiment: Antiviral activity against Coxsackievirus; assay type: functional, organism-based
Echovirus = experiment: Antiviral activity against Echovirus; assay type: functional, organism-based
Enterovirus = experiment: Antiviral activity against Enterovirus; assay type: functional, organism-based

Nc1ccn(C[C@H]2COP(=O)(O)CO2)c(=O)n1 [CYCLIC CIDOFOVIR]
IC50 (Cowpox virus): 51 µM | IC50 (Monkeypox virus): 760 µM | IC50 (Vaccinia virus; Orthopoxvirus vaccinia): 21 µM

C/C=C\[C@@H]1C[C@H](C(=O)O)N[C@H]1[C@@H](NC(C)=O)[C@](C)(CCC)OC
IC50 (Human respirovirus 1): 14.1 µM

C=C[C@@H]1C[C@]1(NC(=O)[C@@H]1C[C@@H](Oc2cc(-c3ccccc3)nc3cc(OC)ccc23)CN1C(=O)[C@H](CC(C)C)NC(=O)OC(C)(C)C)C(=O)O
IC50 (Hepatitis C virus): 0.492 µM

CC(=O)N[C@H]1[C@H]([C@H](O)[C@H](O)CO)OC(C(=O)O)=C[C@@H]1NC(=N)N [ZANAMIVIR]
IC50 (H2N2 subtype): 0.76 µM | IC50 (Influenza A virus H3N2): 0.68 µM | IC50 (H5N1 subtype): 0.22 µM

Nc1ccn(C[C@@H](CO)OCP(=O)(O)O)c(=O)n1 (stereo in doubt; form 1) [CIDOFOVIR]
IC50 (Human adenovirus 2): 3.1 µM | IC50 (Simplexvirus): 3.3 µM | IC50 (Cowpox virus): 48 µM | IC50 (Human betaherpesvirus 5): 0.06 µM | IC50 (Monkeypox virus): 505 µM | IC50 (Vaccinia virus): 23 µM

CC(C)C(=O)N[C@H]1[C@H]([C@H](O)[C@H](O)CO)OC(C(=O)O)=C[C@@H]1NS(=O)(=O)C(Cl)Cl
IC50 (Human respirovirus 1): 1.2 µM | IC50 [1]: 1.9 µM | IC50 (Human respirovirus 3): 2 µM | IC50 (Respirovirus muris): 1.8 µM

NC(=O)c1nc(F)cnc1O
IC50 (Influenza B virus): 0.089 µM | IC50 (Influenza C virus): 0.044 µM | IC50 (Influenza A virus): 0.16 µM | IC50 (H2N2 subtype): 0.048 µM

NC(=O)c1ncn([C@@H]2O[C@H](CO)[C@@H](O)[C@H]2O)n1 [RIBAVIRIN]
IC50 (Human adenovirus 2): 100 µM | IC50 (Camelpox virus): 215 µM | IC50 (Cowpox virus): 410 µM | IC50 (Influenza B virus): 19 µM | IC50 (Influenza A virus): 7.7 µM | IC50 (H2N2 subtype): 13.8 µM | IC50 (Influenza A virus H3N2): 20 µM | IC50 (Monkeypox virus): 145 µM | IC50 (Vaccinia virus; Orthopoxvirus vaccinia): 281 µM

CCOC(=O)C1=C[C@@H](OC(CC)CC)[C@H](NC(C)=O)[C@@H](N)C1 [OSELTAMIVIR]
IC50 (Influenza B virus): 2.1 µM | IC50 (Influenza A virus): 2.5 µM | IC50 (H2N2 subtype): 1.45 µM | IC50 (Influenza A virus H3N2): 0.26 µM | IC50 (H5N1 subtype): 34 µM | IC50 [2]: 45 µM

O=c1n(Cc2nc3ccccc3n2CCCCO)c2cnccc2n1C1CC1
IC50 [3]: 200 µM | IC50 (Human rhinovirus sp.): 200 µM | IC50 [2]: 200 µM | IC50 (Enterovirus C): 200 µM | IC50 (Respirovirus muris): 25 µM

CC(C)C(=O)N[C@H]1[C@H]([C@H](O)[C@H](O)CO)OC(C(=O)O)=C[C@@H]1N=[N+]=[N-]
IC50 [1]: 2.2 µM | IC50 (Respirovirus muris): 0.1 µM

CCO/N=C/c1ccc(OCCC2CCN(c3ccc(Cl)nn3)CC2)cc1
IC50 (Coxsackievirus): 0.825 µM | IC50 (Echovirus): 0.067 µM | IC50 (Enterovirus): 0.001 µM | IC50 (Human rhinovirus sp.): 0.026 µM
